Reference: ChEMBL document CHEMBL3227920, “Synthesis and activities of antitumor agents” (J Med Chem, 1979)
Calls of active or inactive are those of the source. The calls are words filed in the database; no cut-off is given here.

Key:
[1] = tested on: L1210; test: Antitumor activity against mouse L1210 cells allografted in BDF1 mouse assessed as mean survival days at 20 mg/kg, ip qd for 3 days; assay type: functional; details: route intraperitoneal
[2] = tested on: L1210; test: Antitumor activity against mouse L1210 cells allografted in BDF1 mouse assessed as mean survival days at 20 mg/kg, ip qd for 3 days relative to control; assay type: functional; details: route intraperitoneal
[3] = tested on: L1210; test: Antitumor activity against mouse L1210 cells allografted in BDF1 mouse assessed as increase in life span at 20 mg/kg, ip qd for 3 days relative to control; assay type: functional; details: route intraperitoneal
[4] = tested on: Mus musculus; test: Toxicity in mouse L1210 cells allografted BDF1 mouse assessed as atrophic spleen at 40 mg/kg, ip qd for 3 days; assay type: organism-based; parameters: dose 40 mg/kg, route intraperitoneal; details: in vivo, 72 h
[5] = tested on: Mus musculus; test: Toxicity in mouse L1210 cells allografted BDF1 mouse assessed as congestive liver at 40 mg/kg, ip qd for 3 days; assay type: organism-based; parameters: dose 40 mg/kg, route intraperitoneal; details: in vivo, 72 h
[6] = tested on: Mus musculus; test: Toxicity in mouse L1210 cells allografted BDF1 mouse assessed as atrophic liver at 20 mg/kg, ip qd for 3 days; assay type: organism-based; parameters: dose 20 mg/kg, route intraperitoneal; details: in vivo, 72 h
[7] = tested on: L1210; test: Antitumor activity against mouse L1210 cells allografted in BDF1 mouse assessed as mean survival days at 8 mg/kg, ip qd for 3 days; assay type: functional; details: route intraperitoneal
[8] = tested on: L1210; test: Antitumor activity against mouse L1210 cells allografted in BDF1 mouse assessed as increase in life span at 8 mg/kg, ip qd for 3 days relative to control; assay type: functional; details: route intraperitoneal
[9] = tested on: L1210; test: Antitumor activity against mouse L1210 cells allografted in BDF1 mouse assessed as host survival at 8 mg/kg, ip qd for 3 days measured on day 60 relative to control; assay type: functional, organism-based; parameters: dose 8 mg/kg
[10] = tested on: L1210; test: Antitumor activity against mouse L1210 cells allografted in BDF1 mouse assessed as increase in life span at 10 mg/kg, ip qd for 3 days relative to control; assay type: functional; details: route intraperitoneal
[11] = tested on: L1210; test: Antitumor activity against mouse L1210 cells allografted in BDF1 mouse assessed as mean survival days at 10 mg/kg, ip qd for 3 days; assay type: functional; details: route intraperitoneal
[12] = tested on: L1210; test: Antitumor activity against mouse L1210 cells allografted in BDF1 mouse assessed as mean survival days at 10 mg/kg, ip qd for 3 days relative to control; assay type: functional; details: route intraperitoneal
[13] = tested on: L1210; test: Antitumor activity against mouse L1210 cells allografted in BDF1 mouse assessed as mean survival days at 8 mg/kg, ip qd for 3 days relative to control; assay type: functional; details: route intraperitoneal

Row | SMILES | Survival [7] [days] | Activity [8] [%] | Activity [9] | other results
1 | O=NN(CCCl)C(=O)N[C@@H]1O[C@H](CO)[C@@H](O[C@H]2O[C@H](CO)[C@@H](O)[C@H](O)[C@H]2O)[C@H](O)[C@H]1O | – | – | – | Survival [1]: 45.3 days; T/C [2]: 9; Activity [3]: 403.3%; Activity [4]: Toxic; Activity [5]: Toxic; Activity [6]: Toxic
2 | O=NN(CCCl)C(=O)N[C@@H]1O[C@H](CO)[C@@H](O)[C@H](O)[C@H]1O | 60 | 512.2 | Active | –
3 | O=NN(CCCl)C(=O)N[C@@H]1O[C@H](CO)[C@@H](O[C@@H]2O[C@H](CO)[C@H](O)[C@H](O)[C@H]2O)[C@H](O)[C@H]1O | – | – | – | Activity [10]: 384.5%; Survival [11]: 47 days; T/C [12]: 9.7
4 | O=NN(CCCl)C(=O)N[C@@H]1O[C@H](CO)[C@@H](O[C@@H]2O[C@H](CO)[C@@H](O)[C@H](O)[C@H]2O)[C@H](O)[C@H]1O | 42 | 483.3 | – | T/C [13]: 7.2
5 | O=NN(CCCl)C(=O)N[C@@H]1O[C@H](CO)[C@H](O)[C@H](O)[C@H]1O | 47 | 405.4 | – | –
6 | O=NN(CCCl)C(=O)N[C@@H]1O[C@H](CO)[C@@H](O)[C@H](O)[C@@H]1O | 18.3 | 103.3 | inactive | –
7 | O=NN(CCCl)C(=O)N[C@@H]1OC[C@@H](O)[C@H](O)[C@H]1O | 60 | 445.5 | Active | T/C [13]: 11
